Experiment: shake-flask solubility measurement, spectrophotometric at 243 nm
Type: physicochemical
Procedure: To assess the solubility of EDA in various solvents, excess amounts of EDA were added to test tubes containing either a specific solvent or a binary mixture containing the organic solvent and water in different molar proportions. The saturated solutions were then placed in an Orbital Shaker Incubator ES-20/60 from Biosan (Riga, Latvia) and incubated at various temperatures for 24 h. Four temperature points, ranging from 25 °C to 40 °C with 5 °C intervals, were used for the incubation. The incubator temperature was precisely adjusted to within 0.1 degrees, with a variance of 0.5 degrees during the 24 h cycle. The samples were simultaneously mixed at 60 rev/min. Next, the samples were filtered using syringes equipped with PTFE filters with a pore size of 0.22 µm. To prevent precipitation due to temperature differences between the solutions and instruments, all test tubes, pipette tips, syringes, and filters were preheated. They were placed in the same incubator as the samples and heated to the same temperature before handling. This step was particularly crucial when dealing with elevated temperatures, as the temperature difference could be substantial. After filtration, small quantities of the obtained filtrate were diluted in test tubes containing methanol and measured spectrophotometrically. The density of each solution was measured by weighing a 1 mL volume in 10 mL volumetric flasks using an Eppendorf Reference 2 pipette (Hamburg, Germany) with a systematic error of 6 μL. The RADWAG AS 110 R2.PLUS analytical balance (Radom, Poland) with a precision of 0.1 mg was also used for this purpose. Solubility determination was conducted using the A360 spectrophotometer from AOE Instruments (Shanghai, China). Spectra were recorded in the wavelength range of 190 nm to 400 nm with a resolution of 1 nm. Methanol was used for both diluting the samples and the initial calibration of the spectrophotometer. The analytical wavelength was set at 243 nm, and the absorbance at this wavelength was used to determine the EDA concentration in the samples and subsequently calculate its mole fractions. To ensure accuracy, three separate measurements were performed, and the resulting values were averaged. The calibration curve for EDA was prepared by diluting an initial stock solution and measuring the resulting solutions’ spectrophotometric properties at decreased concentrations. The molar concentrations of the measured solutions ranged from 0.0023 to 0.023 mg/mL. The relationship between the absorbance values at 243 nm and the solution concentration was described by a linear equation A = 85.603 × C − 0.0179, with high linearity denoted by the determination coefficient R^2 equal to 0.9993.

## CC1=NN(c2ccccc2)C(=O)C1 [Edaravone, 5-methyl-2-phenyl-4H-pyrazol-3-one]
1,2-propanediol (PG)-water, 25 °C
  solubility at x2* = 0.9 versus pure solvent: higher solubility compared to pure solvents
1,3-butanediol (BG)-water, 25 °C
  solubility at x2* = 0.9 versus pure solvent: higher solubility compared to pure solvents
BG-water, x2*=0.0 (water), 25 °C
  Edaravone solubility (xEDA): 0.02 (<±0.01) xEDA, ×102
BG-water, x2*=0.1, 25 °C
  Edaravone solubility (xEDA): 0.12 (±0.02) xEDA, ×102
BG-water, x2*=0.2, 25 °C
  Edaravone solubility (xEDA): 0.29 (±0.04) xEDA, ×102
BG-water, x2*=0.3, 25 °C
  Edaravone solubility (xEDA): 0.53 (±0.03) xEDA, ×102
BG-water, x2*=0.4, 25 °C
  Edaravone solubility (xEDA): 0.83 (±0.04) xEDA, ×102
BG-water, x2*=0.5, 25 °C
  Edaravone solubility (xEDA): 1.07 (±0.05) xEDA, ×102
BG-water, x2*=0.6, 25 °C
  Edaravone solubility (xEDA): 1.27 (±0.03) xEDA, ×102
BG-water, x2*=0.7, 25 °C
  Edaravone solubility (xEDA): 1.42 (±0.05) xEDA, ×102
BG-water, x2*=0.8, 25 °C
  Edaravone solubility (xEDA): 1.50 (±0.03) xEDA, ×102
BG-water, x2*=0.9, 25 °C
  Edaravone solubility (xEDA): 1.51 (±0.04) xEDA, ×102
DG-water, x2*=0.0 (water), 25 °C
  Edaravone solubility (xEDA): 0.02 (<±0.01) xEDA, ×102
DG-water, x2*=0.1, 25 °C
  Edaravone solubility (xEDA): 0.09 (±0.01) xEDA, ×102
DG-water, x2*=0.2, 25 °C
  Edaravone solubility (xEDA): 0.25 (±0.01) xEDA, ×102
DG-water, x2*=0.3, 25 °C
  Edaravone solubility (xEDA): 0.48 (±0.04) xEDA, ×102
DG-water, x2*=0.4, 25 °C
  Edaravone solubility (xEDA): 0.74 (±0.03) xEDA, ×102
DG-water, x2*=0.5, 25 °C
  Edaravone solubility (xEDA): 1.09 (±0.01) xEDA, ×102
DG-water, x2*=0.6, 25 °C
  Edaravone solubility (xEDA): 1.39 (±0.02) xEDA, ×102
DG-water, x2*=0.7, 25 °C
  Edaravone solubility (xEDA): 1.65 (±0.05) xEDA, ×102
DG-water, x2*=0.8, 25 °C
  Edaravone solubility (xEDA): 1.87 (±0.04) xEDA, ×102
DG-water, x2*=0.9, 25 °C
  Edaravone solubility (xEDA): 1.98 (±0.02) xEDA, ×102
PG-water, x2*=0.0 (water), 25 °C
  Edaravone solubility (xEDA): 0.02 (<±0.01) xEDA, ×102
PG-water, x2*=0.1, 25 °C
  Edaravone solubility (xEDA): 0.06 (±0.01) xEDA, ×102
PG-water, x2*=0.2, 25 °C
  Edaravone solubility (xEDA): 0.15 (±0.01) xEDA, ×102
PG-water, x2*=0.3, 25 °C
  Edaravone solubility (xEDA): 0.26 (±0.02) xEDA, ×102
PG-water, x2*=0.4, 25 °C
  Edaravone solubility (xEDA): 0.40 (±0.02) xEDA, ×102
PG-water, x2*=0.5, 25 °C
  Edaravone solubility (xEDA): 0.54 (±0.02) xEDA, ×102
PG-water, x2*=0.6, 25 °C
  Edaravone solubility (xEDA): 0.71 (±0.02) xEDA, ×102
PG-water, x2*=0.7, 25 °C
  Edaravone solubility (xEDA): 0.86 (±0.02) xEDA, ×102
PG-water, x2*=0.8, 25 °C
  Edaravone solubility (xEDA): 0.99 (±0.02) xEDA, ×102
PG-water, x2*=0.9, 25 °C
  Edaravone solubility (xEDA): 1.00 (±0.02) xEDA, ×102
TG-water, x2*=0.0 (water), 25 °C
  Edaravone solubility (xEDA): 0.02 (<±0.01) xEDA, ×102
TG-water, x2*=0.1, 25 °C
  Edaravone solubility (xEDA): 0.31 (±0.04) xEDA, ×102
TG-water, x2*=0.2, 25 °C
  Edaravone solubility (xEDA): 0.78 (±0.03) xEDA, ×102
TG-water, x2*=0.3, 25 °C
  Edaravone solubility (xEDA): 1.28 (±0.07) xEDA, ×102
TG-water, x2*=0.4, 25 °C
  Edaravone solubility (xEDA): 1.72 (±0.06) xEDA, ×102
TG-water, x2*=0.5, 25 °C
  Edaravone solubility (xEDA): 2.11 (±0.08) xEDA, ×102
TG-water, x2*=0.6, 25 °C
  Edaravone solubility (xEDA): 2.54 (±0.08) xEDA, ×102
TG-water, x2*=0.7, 25 °C
  Edaravone solubility (xEDA): 3.03 (±0.09) xEDA, ×102
TG-water, x2*=0.8, 25 °C
  Edaravone solubility (xEDA): 3.51 (±0.09) xEDA, ×102
TG-water, x2*=0.9, 25 °C
  Edaravone solubility (xEDA): 3.58 (±0.06) xEDA, ×102
  mole fraction solubility xEDA: 3.58 × 10^−2 mole fraction
Diethylene glycol (DG)-water, 25 °C
  cosolvency effect in aqueous binary solvent: no cosolvency effect was observed
Neat 1,2-propanediol (PG), x2*=1.0, 25 °C
  Edaravone solubility (xEDA): 0.85 (±0.01) xEDA, ×102
Neat 1,3-butanediol (BG), x2*=1.0, 25 °C
  Edaravone solubility (xEDA): 1.43 (±0.04) xEDA, ×102
Neat 2,4-dimethylphenol (DMP), 25 °C
  Edaravone solubility (xEDA): 1.88 (±0.05) xEDA, ×102
Neat 2,4-dimethylphenol (DMP), 30 °C
  Edaravone solubility (xEDA): 2.82 (±0.58) xEDA, ×102
Neat 2,4-dimethylphenol (DMP), 35 °C
  Edaravone solubility (xEDA): 4.08 (±0.21) xEDA, ×102
Neat 2,4-dimethylphenol (DMP), 40 °C
  Edaravone solubility (xEDA): 5.65 (±0.25) xEDA, ×102
Neat 4-formylmorpholine (4FM), 25 °C
  Edaravone solubility (xEDA): 1.11 (±0.01) xEDA, ×102
Neat 4-formylmorpholine (4FM), 30 °C
  Edaravone solubility (xEDA): 1.46 (±0.08) xEDA, ×102
Neat 4-formylmorpholine (4FM), 35 °C
  Edaravone solubility (xEDA): 1.76 (±0.19) xEDA, ×102
Neat 4-formylmorpholine (4FM), 40 °C
  Edaravone solubility (xEDA): 2.17 (±0.01) xEDA, ×102
Neat DMSO, 25 °C
  Edaravone solubility (xEDA): 7.58 (±0.32) xEDA, ×102
Neat DMSO, 30 °C
  Edaravone solubility (xEDA): 12.25 (±0.16) xEDA, ×102
Neat DMSO, 35 °C
  Edaravone solubility (xEDA): 20.1 (±0.15) xEDA, ×102
Neat DMSO, 40 °C
  Edaravone solubility (xEDA): 29.81 (±1.14) xEDA, ×102
  mole fraction solubility xEDA: 29.81 × 10^−2 mole fraction
Neat NMP, 25 °C
  Edaravone solubility (xEDA): 3.83 (±0.01) xEDA, ×102
Neat NMP, 30 °C
  Edaravone solubility (xEDA): 4.96 (±0.49) xEDA, ×102
Neat NMP, 35 °C
  Edaravone solubility (xEDA): 6.94 (±0.19) xEDA, ×102
Neat NMP, 40 °C
  Edaravone solubility (xEDA): 8.61 (±0.21) xEDA, ×102
Neat TEG, 25 °C
  mole fraction solubility xEDA: 4.63 × 10^−2 mole fraction
Neat TEG, 40 °C
  mole fraction solubility xEDA: 21.21 × 10^−2 mole fraction
Neat diethylene glycol (DG), x2*=1.0, 25 °C
  Edaravone solubility (xEDA): 2.04 (±0.06) xEDA, ×102
Neat diglyme (DIG), 25 °C
  Edaravone solubility (xEDA): 2.05 (±0.02) xEDA, ×102
Neat diglyme (DIG), 30 °C
  Edaravone solubility (xEDA): 2.69 (±0.04) xEDA, ×102
Neat diglyme (DIG), 35 °C
  Edaravone solubility (xEDA): 3.33 (±0.11) xEDA, ×102
Neat diglyme (DIG), 40 °C
  Edaravone solubility (xEDA): 4.16 (±0.06) xEDA, ×102
Neat tetraglyme (TEG), 25 °C
  Edaravone solubility (xEDA): 4.63 (±0.05) xEDA, ×102
Neat tetraglyme (TEG), 30 °C
  Edaravone solubility (xEDA): 8.63 (±0.22) xEDA, ×102
Neat tetraglyme (TEG), 35 °C
  Edaravone solubility (xEDA): 13.05 (±0.19) xEDA, ×102
Neat tetraglyme (TEG), 40 °C
  Edaravone solubility (xEDA): 21.21 (±0.64) xEDA, ×102
Neat triethylene glycol (TG), 25 °C
  mole fraction solubility xEDA: 2.75 × 10^−2 mole fraction
Neat triethylene glycol (TG), x2*=1.0, 25 °C
  Edaravone solubility (xEDA): 2.75 (±0.08) xEDA, ×102
Neat triglyme (TIG), 25 °C
  Edaravone solubility (xEDA): 1.53 (±0.07) xEDA, ×102
Neat triglyme (TIG), 30 °C
  Edaravone solubility (xEDA): 2.20 (±0.04) xEDA, ×102
Neat triglyme (TIG), 35 °C
  Edaravone solubility (xEDA): 3.11 (±0.17) xEDA, ×102
Neat triglyme (TIG), 40 °C
  Edaravone solubility (xEDA): 4.57 (±0.39) xEDA, ×102
